Test results as given in patent publication US9695155B2, “Herbicidal substituted pyrimidinyloxy benzene compounds” (E. I. DU PONT DE NEMOURS AND COMPANY, priority 2013, dated 2017).

Legend:
galium = assay: Test C postemergence; format: in vivo, Galium aparine; conditions: Galium, post-emergence
Method in brief: (§1)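 Injury was assessed visually against controls 13 to 15 days after application, with 0 meaning no effect and 100 full control; missing entries are shown as a dash. Preemergence sprays hit seeded loam–sand soil, postemergence sprays hit 1- to 4-leaf plants.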

velvetleaf = assay: Test A postemergence; format: in vivo, Abutilon theophrasti; conditions: Abutilon theophrasti, post-emergence, 240 h, read-out: Plant response rating, Velvetleaf
Method in brief: (§2)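 Scoring: eye-based comparison with untreated controls, 0 for no effect through 100 for complete control, at about day 10. Treatments: directed soil spray preemergence; foliar spray postemergence on 2–10 cm plants at the one- to two-leaf stage. Medium: loam soil with sand.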

barnyardgrass [1] = assay: Test A preemergence; format: in vivo, Echinochloa crus-galli
Method in brief: as §2

lambsquarters = assay: Test C postemergence; format: in vivo, Chenopodium album
Method in brief: as §1

waterhemp = assay: Test C postemergence; format: in vivo, Amaranthus rudis
Method in brief: as §1

oilseed rape = assay: Test C postemergence; format: in vivo, Brassica napus
Method in brief: as §1

large (Lg) crabgrass = assay: Test C postemergence; format: in vivo, Digitaria sanguinalis; conditions: Digitaria sanguinalis, post-emergence
Method in brief: as §1

johnsongrass = assay: Test C postemergence; format: in vivo, Sorghum halepense
Method in brief: as §1

pigweed [2] = assay: Test A postemergence; format: in vivo, Amaranthus retroflexus; conditions: Amaranthus retroflexus, post-emergence, read-out: Plant response rating, Pigweed
Method in brief: as §2

wild oat = assay: Test C postemergence; format: in vivo, Avena fatua; conditions: Avena fatua, post-emergence
Method in brief: as §1

barnyardgrass [3] = assay: Test C postemergence; format: in vivo, Echinochloa crus-galli; conditions: Echinochloa crus-galli, post-emergence
Method in brief: as §1

pigweed [4] = assay: Test A preemergence; format: in vivo, Amaranthus retroflexus
Method in brief: as §2

giant foxtail = assay: Test A preemergence; format: in vivo, Setaria faberii
Method in brief: as §2

blackgrass = assay: Test C postemergence; format: in vivo, Alopecurus myosuroides; conditions: Alopecurus myosuroides, post-emergence
Method in brief: as §1

wheat = assay: Test A preemergence; format: in vivo, Triticum aestivum
Method in brief: as §2

[5] = 125 g ai/ha, 0 to 100 scale, 0 no effect, 100 complete control
[6] = 500 g ai/ha, 0 to 100 scale where 0 is no effect and 100 is complete control
[7] = 31 g ai/ha, postemergence, visual rating, scale 0 to 100 (0 no effect, 100 complete control), 13 to 15 days

N#Cc1cccc(Oc2ncc(Cl)cn2)c1-n1cc(OCC(F)(F)F)cn1 [Compound 274, 3-[(5-chloro-2-pyrimidinyl)oxy]-2-[4-(2,2,2-trifluoroethoxy)-1H-pyrazol-1-yl]benzonitrile]
pest or weed control at 16 g/ha (galium; 16 g ai/ha, postemergence, 0 is no effect, 100 is complete control, read-out: Plant response rating (0 to 100), Galium): 70%
pest or weed control at 31 g/ha (galium; 31 g ai/ha, postemergence, visual rating, scale 0 to 100 (0 no effect, 100 complete control), 13 to 15 days, read-out: Galium plant response rating): 80%
pest or weed control at 125 g/ha (galium; 125 g ai/ha, postemergence, visual rating, scale 0 to 100 (0 no effect, 100 complete control), read-out: Plant response rating, Galium): 98%
pest or weed control at 62 g/ha (galium; Postemergence, 62 g ai/ha, scale 0 to 100 (0 no effect, 100 complete control), 13 to 15 days, read-out: Plant response rating, Galium): 90%
pest or weed control at 125 g/ha (velvetleaf; [5]): 100%
pest or weed control at 500 g/ha (velvetleaf; [6]): 100%
Barnyardgrass plant response rating (0 to 100 scale, 0 is no effect, 100 is complete control) (barnyardgrass [1]; 125 g ai/ha): 90
pest or weed control at 500 g/ha (barnyardgrass [1]; Echinochloa crus-galli, pre-emergence, 240 h, 500 g ai/ha, 0 to 100 scale where 0 is no effect and 100 is complete control, read-out: Barnyardgrass plant response rating): 100%
Lambsquarters plant response rating (lambsquarters; [7]): 95
pest or weed control at 16 g/ha (lambsquarters; Chenopodium album, post-emergence, 16 g ai/ha, postemergence, 0 is no effect, 100 is complete control, read-out: Plant response rating (0 to 100), Lambsquarters): 85%
pest or weed control at 125 g/ha (lambsquarters; Chenopodium album, post-emergence, 125 g ai/ha, postemergence, visual rating, scale 0 to 100 (0 no effect, 100 complete control), read-out: Plant response rating, Lambsquarters): 98%
pest or weed control at 62 g/ha (lambsquarters; Chenopodium album, post-emergence, Postemergence, 62 g ai/ha, scale 0 to 100 (0 no effect, 100 complete control), 13 to 15 days, read-out: Plant response rating, Lambsquarters): 95%
Waterhemp plant response rating (waterhemp; [7]): 85
pest or weed control at 16 g/ha (waterhemp; Amaranthus tuberculatus, post-emergence, 16 g ai/ha, postemergence, 0 is no effect, 100 is complete control, read-out: Plant response rating (0 to 100), Waterhemp): 70%
pest or weed control at 125 g/ha (waterhemp; Amaranthus tuberculatus, post-emergence, 125 g ai/ha, postemergence, visual rating, scale 0 to 100 (0 no effect, 100 complete control), read-out: Plant response rating, Waterhemp): 98%
pest or weed control at 62 g/ha (waterhemp; Amaranthus tuberculatus, post-emergence, Postemergence, 62 g ai/ha, scale 0 to 100 (0 no effect, 100 complete control), 13 to 15 days, read-out: Plant response rating, Waterhemp): 95%
Oilseed Rape plant response rating (oilseed rape; [7]): 80
plant injury at 16 g/ha (oilseed rape; Brassica napus, post-emergence, 16 g ai/ha, postemergence, 0 is no effect, 100 is complete control, read-out: Plant response rating (0 to 100), Oilseed Rape): 60%
plant injury at 125 g/ha (oilseed rape; Brassica napus, post-emergence, 125 g ai/ha, postemergence, visual rating, scale 0 to 100 (0 no effect, 100 complete control), read-out: Plant response rating, Oilseed Rape): 90%
plant injury at 62 g/ha (oilseed rape; Brassica napus, post-emergence, Postemergence, 62 g ai/ha, scale 0 to 100 (0 no effect, 100 complete control), 13 to 15 days, read-out: Plant response rating, Oilseed Rape): 85%
pest or weed control at 16 g/ha (large (Lg) crabgrass; 16 g ai/ha, postemergence, 0 is no effect, 100 is complete control, read-out: Plant response rating (0 to 100), Crabgrass, Large): 5%
pest or weed control at 31 g/ha (large (Lg) crabgrass; 31 g ai/ha, postemergence, visual rating, scale 0 to 100 (0 no effect, 100 complete control), 13 to 15 days, read-out: Crabgrass, Large plant response rating): 5%
pest or weed control at 125 g/ha (large (Lg) crabgrass; 125 g ai/ha, postemergence, visual rating, scale 0 to 100 (0 no effect, 100 complete control), read-out: Plant response rating, Crabgrass, Large): 60%
pest or weed control at 62 g/ha (large (Lg) crabgrass; Postemergence, 62 g ai/ha, scale 0 to 100 (0 no effect, 100 complete control), 13 to 15 days, read-out: Plant response rating, Crabgrass, Large): 30%
Johnsongrass plant response rating (johnsongrass; [7]): 5
pest or weed control at 16 g/ha (johnsongrass; Sorghum halepense, post-emergence, 16 g ai/ha, postemergence, 0 is no effect, 100 is complete control, read-out: Plant response rating (0 to 100), Johnsongrass): 5%
pest or weed control at 125 g/ha (johnsongrass; Sorghum halepense, post-emergence, 125 g ai/ha, postemergence, visual rating, scale 0 to 100 (0 no effect, 100 complete control), read-out: Plant response rating, Johnsongrass): 10%
pest or weed control at 62 g/ha (johnsongrass; Sorghum halepense, post-emergence, Postemergence, 62 g ai/ha, scale 0 to 100 (0 no effect, 100 complete control), 13 to 15 days, read-out: Plant response rating, Johnsongrass): 5%
pest or weed control at 125 g/ha (pigweed [2]; [5]): 100%
pest or weed control at 500 g/ha (pigweed [2]; [6]): 100%
pest or weed control at 16 g/ha (wild oat; 16 g ai/ha, postemergence, 0 is no effect, 100 is complete control, read-out: Plant response rating (0 to 100), Oat, Wild): 30%
pest or weed control at 125 g/ha (wild oat; 125 g ai/ha, postemergence, visual rating, scale 0 to 100 (0 no effect, 100 complete control), read-out: Plant response rating, Oat, Wild): 30%
pest or weed control at 62 g/ha (wild oat; Postemergence, 62 g ai/ha, scale 0 to 100 (0 no effect, 100 complete control), 13 to 15 days, read-out: Plant response rating, Oat, Wild): 35%
pest or weed control at 16 g/ha (barnyardgrass [3]; 16 g ai/ha, postemergence, 0 is no effect, 100 is complete control, read-out: Plant response rating (0 to 100), Barnyardgrass): 5%
pest or weed control at 31 g/ha (barnyardgrass [3]; 31 g ai/ha, postemergence, visual rating, scale 0 to 100 (0 no effect, 100 complete control), 13 to 15 days, read-out: Barnyardgrass plant response rating): 10%
pest or weed control at 125 g/ha (barnyardgrass [3]; 125 g ai/ha, postemergence, visual rating, scale 0 to 100 (0 no effect, 100 complete control), read-out: Plant response rating, Barnyardgrass): 15%
pest or weed control at 62 g/ha (barnyardgrass [3]; Postemergence, 62 g ai/ha, scale 0 to 100 (0 no effect, 100 complete control), 13 to 15 days, read-out: Plant response rating, Barnyardgrass): 10%
Pigweed plant response rating (0 to 100 scale) (pigweed [4]; 125 g ai/ha): 100
pest or weed control at 500 g/ha (pigweed [4]; Amaranthus retroflexus, pre-emergence, 240 h, 500 g ai/ha, 0 to 100 scale where 0 is no effect and 100 is complete control, read-out: Pigweed plant response rating): 100%
Foxtail, Giant plant response rating (0 to 100 scale) (giant foxtail; 125 g ai/ha): 100
pest or weed control at 500 g/ha (giant foxtail; Setaria faberi, pre-emergence, 240 h, 500 g ai/ha, 0 to 100 scale where 0 is no effect and 100 is complete control, read-out: Foxtail, Giant plant response rating): 100%
pest or weed control at 16 g/ha (blackgrass; 16 g ai/ha, postemergence, 0 is no effect, 100 is complete control, read-out: Plant response rating (0 to 100), Blackgrass): 5%
pest or weed control at 31 g/ha (blackgrass; 31 g ai/ha, postemergence, visual rating, scale 0 to 100 (0 no effect, 100 complete control), 13 to 15 days, read-out: Blackgrass plant response rating): 5%
pest or weed control at 125 g/ha (blackgrass; 125 g ai/ha, postemergence, visual rating, scale 0 to 100 (0 no effect, 100 complete control), read-out: Plant response rating, Blackgrass): 20%
pest or weed control at 62 g/ha (blackgrass; Postemergence, 62 g ai/ha, scale 0 to 100 (0 no effect, 100 complete control), 13 to 15 days, read-out: Plant response rating, Blackgrass): 15%
Wheat plant response rating (0 to 100 scale) (wheat; 125 g ai/ha): 40
plant injury at 500 g/ha (wheat; Triticum aestivum, pre-emergence, 240 h, 500 g ai/ha, 0 to 100 scale where 0 is no effect and 100 is complete control, read-out: Wheat plant response rating): 80%
